Experimental data: patent publication US10086027B1, “Green synthesis of katononic acid nanosheets” (KING SAUD UNIVERSITY, priority 2018, dated 2018)

Columns and labels:
Assay in all cases: Antimicrobial activity, diffusion agar technique
Assay type in all cases: cell-based
Details in all cases: well diameter 6.0 mm, 100 μl
[1] = tested on: Streptococcus pyogenes (RCMB 010015)
Procedure: (§1) The antimicrobial effect of the katononic acid nanosheets was evaluated against gram positive bacteria, gram negative bacteria, and fungi. The diffusion agar technique was used with a well diameter of 6.0 mm and 100 μl of katononic acid nanosheets.

[2] = tested on: Staphylococcus epidermidis (RCMB 010024)
Procedure: as §1

[3] = tested on: Staphylococcus aureus (RCMB 010027)
Procedure: as §1

[4] = tested on: Salmonella enteritidis (RCMB 010084)
Procedure: as §1

[5] = tested on: Proteous vulgaris (RCMB 010085)
Procedure: as §1

[6] = tested on: Klebsiella pneumoniae (RCMB 0010093)
Procedure: as §1

[7] = tested on: Absidia corymbffera (RCMB 02564)
Procedure: as §1

[8] = tested on: Geotricum candidum (RCMB 05097)
Procedure: as §1

[9] = tested on: Candida albicans (RCMB 05036)
Procedure: as §1

## CC1(C)S[C@@H]2[C@H](NC(=O)[C@H](N)c3ccccc3)C(=O)N2[C@H]1C(=O)O [Ampicillin]
[1]
  Zone of Inhibition (±SD): 26.3 ± 0.34
[2]
  Zone of Inhibition (±SD): 25.0 ± 0.18
[3]
  Zone of Inhibition (±SD): 27.3 ± 0.14

## Gentamycin
[4]
  Zone of Inhibition (±SD): 25.2 ± 0.18
[5]
  Zone of Inhibition (±SD): 23.4 ± 0.30
[6]
  Zone of Inhibition (±SD): 26.4 ± 0.15

## C[C@@H]1[C@H](O)[C@@H](C)/C=C/C=C/C=C/C=C/C=C/C=C/C=C/[C@H](O[C@@H]2O[C@H](C)[C@@H](O)[C@H](N)[C@@H]2O)C[C@@H]2O[C@](O)(C[C@@H](O)C[C@@H](O)[C@H](O)CC[C@@H](O)C[C@@H](O)CC(=O)O[C@H]1C)C[C@H](O)[C@H]2C(=O)O [Amphotericin B]
[7]
  Zone of Inhibition (±SD): 23.0 ± 0.10
[8]
  Zone of Inhibition (±SD): 27.0 ± 0.20
[9]
  Zone of Inhibition (±SD): 25.7 ± 0.10
